The results in this text go back to ChEMBL document CHEMBL1146449, “Trypanocidal flavonoids from Trixis vauthieri” (1997).

Format in all cases: functional
Common to all, as to design: scale not given: the % may be the effect or the level left

Assay [1] concerns Trypanosoma cruzi. As to the kind of experiment: Trypanocidal activity against Trypanosoma cruzi Y strain trypomastigotes infected in Swiss albino mouse blood assessed as reduction of parasitemia at 1000 ug/mL after 24 hrs relative to control.
Assay [2] relates to Trypanosoma cruzi. As to the kind of experiment: Trypanocidal activity against Trypanosoma cruzi Y strain trypomastigotes infected in Swiss albino mouse blood assessed as reduction of parasitemia at 31 ug/mL after 24 hrs relative to control.
Assay [3] relates to Trypanosoma cruzi. Nature of the assay: Trypanocidal activity against Trypanosoma cruzi Y strain trypomastigotes infected in Swiss albino mouse blood assessed as reduction of parasitemia at 500 ug/mL after 24 hrs relative to control.

With `COc1cc(O)c2c(c1)OC(c1ccc(O)cc1)C(O)C2=O` (stereo not given), the Activity in the assay on Trypanosoma cruzi [1] was 0%.
Turning to `COc1c(OC)c(O)c2c(=O)c(OC)c(-c3ccc(O)cc3)oc2c1OC` [CALYCOPTERIN], the Activity in the assay on Trypanosoma cruzi [1] is 0%.
Turning to `CN(C)c1ccc(C(=C2C=CC(=[N+](C)C)C=C2)c2ccc(N(C)C)cc2)cc1.[Cl-]` [GENTIAN VIOLET], the Activity in the assay on Trypanosoma cruzi [2] is 50%.
Regarding `COc1cc2oc(-c3ccc(O)cc3)c(OC)c(=O)c2c(O)c1OC` [PENDULETIN], the Activity in the assay on Trypanosoma cruzi [3] is recorded as 86%.
The same measure, in the same setting: the result for `COc1cc(O)c2c(c1)O[C@H](c1ccc(O)cc1)CC2=O` [SAKURANETIN] reads 100%.
